Consider one compound from US20220306585A1, “PYRAZOLE DERIVATIVES FOR CONTROLLING ARTHROPODS” (Bayer Animal Health GmbH, priority 2019, published 2022).

The nature of data set [1]: Measurement of stability of prodrugs in buffer at pH 7.4. Particulars: PBS buffer pH 7.4, 37° C., HPLC peak area, read-out: % Recovery after 24 h (stability at pH 7.4). The class given is physicochemical. In outline:
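Test compound (0.15 mg) in DMSO/acetonitrile was mixed with PBS pH 7.4 and held at 37 °C for 24 h. Remaining compound was followed by HPLC as peak area percentage of total area. The final time point was also analysed by HPLC-MS.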

Data set [2] deals with Dermacentor variabilis nymph. As to the kind of experiment: Antiparasitic activity after administration to rats: ticks. It counts as in vivo. Particulars: 11.97 mg/kg sc, Dermacentor variabilis nymph. In outline:
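Compounds dissolved in glycerol formal, given i.p. or s.c. to rats, 5 per group. Infestation with 30 D. variabilis nymphs (days −2, 7, 14, 21, 28, 35) and 30 adult C. felis (days −1, 8, 15, 22, 29, 36), with counts on days 2, 9, 16, 23, 30, 37. Percent efficacy compares mean live attached ticks or live fleas with a placebo-treated group.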

For `N#CC1(N(COC(=O)/C=C/C(=O)O)C(=O)c2cc(-c3cnn(-c4c(Cl)cc(C(F)(C(F)(F)F)C(F)(F)F)cc4OC(F)(F)F)c3)ccc2Cl)CC1` [Example 13, (2E)-4-{[(2-Chloro-5-{1-[2-chloro-4-(1,1,1,2,3,3,3-heptafluoropropan-2-yl)-6-(trifluoromethoxy)phenyl]-1H-pyrazol-4-yl}benzoyl)(1-cyanocyclopropyl)amino]methoxy}-4-oxobut-2-enoic acid], the recovery at 24 h, 0.1 mg/mL in data set [1] turned out to be 97%. Further, in data set [2] (study day 2), the “In-vivo Efficacy SD2” value turned out to be 100%. Also, the “In-vivo Efficacy SD9” value in data set [2] (study day 9) stood at 100%. For the same compound, in data set [2] (study day 16), the “In-vivo Efficacy SD16” value is reported as 99%. Also, in data set [2] (study day 23), the “In-vivo Efficacy SD23” value stood at 77%. Further, the “In-vivo Efficacy SD30” value in data set [2] (study day 30) was determined as 59%. Also, in data set [2] (study day 37), the “In-vivo Efficacy SD37” value was determined as 49%.
